According to patent publication US10988774B2, “System for site-specific modification of ALS gene using CRISPR-Cas9 system for production of herbicide-resistant rice and use of same” (Institute of Crop Sciences, Chinese Academy of Agricultural …, priority 2015, dated 2021):

How the values were obtained:
[1] = tested on: T0 site-specifically modified rice of the Cas9-arm donor group (ALS W548L, S627I); test: Resistance to herbicide Bispyribac-sodium, spray test, ALS site-specifically modified rice; assay type: in vivo, Nipponbare rice; settings: homologous recombinant rice, ALS W548L and S627I; spray 100 μM; 36 days after spraying
Protocol: (§1) The wild-type rice, and the T0 site-specifically modified rice of the Cas9-arm donor group with successful homologous recombination at the codons of both the 548th and 627th amino acids of ALS as obtained in step I were sprayed with Bispyribac-sodium in a concentration of 100 μM, and 30-50 days thereafter, the growth states of the plants were observed.

wild-type rice = test: Resistance to herbicide Bispyribac-sodium, spray test, wild-type rice; assay type: in vivo, Nipponbare rice; settings: spray 100 μM, 36 days after spraying
Protocol: as §1

COc1cc(OC)nc(Oc2cccc(Oc3nc(OC)cc(OC)n3)c2C(=O)O)n1 [Bispyribac-sodium] was tested, and the “growth state of the plants after spraying” value [1] was “normal growth” and the “growth state of the plants after spraying” value (wild-type rice) was “withered”.
